# Source: patent US20050027003A1, “Methods of therapeutic treatment using retinoids with reduced side effects” (Allergan, Inc., priority 2003, published 2005)
# Columns and labels:
# Assay type in all cases: in vivo, human
# [1] = system: patients with acne; experiment: Example 6: studies of oral tazarotene for acne, adverse events (Table 2); settings: combined data from Studies 1 and 2 (N = 223)
# Protocol: Studies are conducted on orally administered tazarotene for the treatment of acne. Adverse events (side effects) are monitored.
# [2] = system: patient with severe psoriasis; experiment: Example 9: patient with severe psoriasis taking Ortho-Novum, tazarotene 6 mg per day; settings: after 30 days
# From the text: The patient presents symptoms of severe psoriasis. The symptoms include lesions approximately 4 to 10 centimeters across appearing as raised patches of wine red skin many of which are covered in silvery white scales. The lesions are mostly dry and rough, and quite often noticeably warm to the touch. The lesions are present on the elbows, knees, scalp, and groin area. The patient experiences intense burning and itching associated with the lesions.
# The patient is currently taking Ortho-Novum® for contraception.
# Tazarotene at a dose of 6 mg per day is prescribed.
# [3] = system: patients with moderate to very severe plaque psoriasis; experiment: Example 4: open-label extension study of oral tazarotene in plaque psoriasis; settings: 4.5 mg once daily, 12 weeks, across both groups
# [4] = system: patients having nodulocystic acne; experiment: Example 5: two placebo-controlled dose-ranging safety studies in nodulocystic acne; settings: for depression, patients: placebo 2%; for emotional lability, patients: placebo 4%
# Protocol: Two placebo-controlled dose-ranging studies are conducted to evaluate the safety of oral tazarotene in patients having nodulocystic acne. In the first study, patients receive orally administered tazarotene at daily doses of 0.4 mg to 2.8 mg in 96 (71+25) patients (12 weeks treatment plus 12 weeks post-treatment). In the second study, daily doses of 0.75 mg to 6 mg tazarotene are administered to 181 patients (24 weeks treatment plus 12 weeks post-treatment).
# [5] = system: patients with psoriasis; experiment: Example 2: Phase 3 studies of oral tazarotene for psoriasis, adverse events (Table 1); settings: Taz 4.5 mg
# Protocol: A series of Phase 3 studies are conducted on orally administered tazarotene for the treatment of psoriasis. Adverse events (side effects) are monitored. In addition, published data for acitretin's side effects are also considered.
# [6] = Study 3, treated with Tazarotene for 3 months (N = 220)
# [7] = Study 3, treated with Tazarotene for 6 months (N = 92)
# [8] = combined data from Studies 1 and 2 (N = 348)
structure (smiles),measurement,setting,value
CCOC(=O)c1ccc(C#Cc2ccc3c(c2)C(C)(C)CCS3)nc1 [tazarotene],Adverse event: Cheilitis,[1],134 (60.1) number (%) of patients
same,Adverse event: Conjunctivitis,[1],0 (0.0) number (%) of patients
same,Adverse event: Desquamation central face/Desquamation,[1],1 (0.4) number (%) of patients
same,Adverse event: Dry Skin,[1],79 (35.4) number (%) of patients
same,Adverse event: Dry nose,[1],7 (3.1) number (%) of patients
same,Adverse event: Epistaxis,[1],6 (2.7) number (%) of patients
same,Adverse event: Fingertip peeling/Desquamation,[1],1 (0.4) number (%) of patients
same,Adverse event: Headache,[1],26 (11.7) number (%) of patients
same,Adverse event: Irritation of eyes,[1],0 (0.0) number (%) of patients
same,Adverse event: Joint pain/Arthralgia,[1],18 (8.1) number (%) of patients
same,Adverse event: Peeling/Desquamation,[1],1 (0.4) number (%) of patients
same,Adverse event: Pruritus,[1],10 (4.5) number (%) of patients
same,Adverse event: Rash-dermatitis/Rash,[1],7 (3.1) number (%) of patients
same,Adverse event: Red Scaly face/Desquamation,[1],1 (0.4) number (%) of patients
same,Adverse event: Skin fragility/Skin disorder,[1],1 (0.4) number (%) of patients
same,severity of lesions,[2],substantially lessened
same,symptoms of itching and burning,[2],relieved
same,incidence of dry skin,[3],25%
same,incidence of headache,[3],11%
same,incidence of infection,[3],10%
same,"changes in urinalysis, chemistry, or hematology measures (incl. liver function tests, triglycerides, total cholesterol, HDL cholesterol)",[4]; 0.4 mg to 6 mg daily,no consistent dose-related clinically significant changes
same,"ligament calcification, osteophyte formation, changes in serum bone alkaline phosphatase, serum amino terminal telopeptides, bone density",[4]; 0.4 mg to 6 mg daily,not associated with any clinically significant
same,"depression, patients","[4]; 3 mg group (2 mild, 1 severe)",8%
same,"emotional lability, patients",[4]; 3 mg group,3%
same,"depression, patients",[4]; 6 mg group,none
same,"emotional lability, patients",[4]; 6 mg group,14%
same,"dry skin, severe",[4]; all groups,No patient
same,Adverse event: Alopecia,[5]; [6],1 (0.5) number (%) of patients
same,Adverse event: Arthralgia,[5]; [6],28 (12.7) number (%) of patients
same,Adverse event: Atrophy of skin,[5]; [6],0 (0.0) number (%) of patients
same,Adverse event: Back pain,[5]; [6],7 (3.2) number (%) of patients
same,Adverse event: Cheilitis,[5]; [6],149 (67.7) number (%) of patients
same,Adverse event: Dry Skin,[5]; [6],47 (21.4) number (%) of patients
same,Adverse event: Dry mouth/Oral dryness,[5]; [6],11 (5.0) number (%) of patients
same,Adverse event: Epistaxis,[5]; [6],1 (0.5) number (%) of patients
same,Adverse event: Erythematous rash/Erythema,[5]; [6],0 (0.0) number (%) of patients
same,Adverse event: Hyperesthesia,[5]; [6],0 (0.0) number (%) of patients
same,Adverse event: Nail Disorder,[5]; [6],1 (0.5) number (%) of patients
same,Adverse event: Paresthesia,[5]; [6],3 (1.4) number (%) of patients
same,Adverse event: Paronychia/Nail disorder,[5]; [6],1 (0.5) number (%) of patients
same,Adverse event: Pruritus,[5]; [6],11 (5.0) number (%) of patients
same,Adverse event: Rhinitis,[5]; [6],0 (0.0) number (%) of patients
same,Adverse event: Rigors/Chills,[5]; [6],1 (0.5) number (%) of patients
same,Adverse event: Skin peeling/Desquamation,[5]; [6],3 (1.4) number (%) of patients
same,Adverse event: Sticky skin/Skin disorder,[5]; [6],0 (0.0) number (%) of patients
same,Adverse event: Xerophthalmia/Eye disorder,[5]; [6],3 (1.4) number (%) of patients
same,Adverse event: Alopecia,[5]; [7],5 (5.4) number (%) of patients
same,Adverse event: Arthralgia,[5]; [7],30 (32.6) number (%) of patients
same,Adverse event: Atrophy of skin,[5]; [7],0 (0.0) number (%) of patients
same,Adverse event: Back pain,[5]; [7],10 (10.9) number (%) of patients
same,Adverse event: Cheilitis,[5]; [7],65 (70.7) number (%) of patients
same,Adverse event: Dry Skin,[5]; [7],24 (26.1) number (%) of patients
same,Adverse event: Dry mouth/Oral dryness,[5]; [7],2 (2.2) number (%) of patients
same,Adverse event: Epistaxis,[5]; [7],0 (0.0) number (%) of patients
same,Adverse event: Erythematous rash/Erythema,[5]; [7],0 (0.0) number (%) of patients
same,Adverse event: Hyperesthesia,[5]; [7],0 (0.0) number (%) of patients
same,Adverse event: Nail Disorder,[5]; [7],1 (1.1) number (%) of patients
same,Adverse event: Paresthesia,[5]; [7],1 (1.1) number (%) of patients
same,Adverse event: Paronychia/Nail disorder,[5]; [7],1 (1.1) number (%) of patients
same,Adverse event: Pruritus,[5]; [7],3 (3.3) number (%) of patients
same,Adverse event: Rhinitis,[5]; [7],0 (0.0) number (%) of patients
same,Adverse event: Rigors/Chills,[5]; [7],1 (1.1) number (%) of patients
same,Adverse event: Skin peeling/Desquamation,[5]; [7],1 (1.1) number (%) of patients
same,Adverse event: Sticky skin/Skin disorder,[5]; [7],0 (0.0) number (%) of patients
same,Adverse event: Xerophthalmia/Eye disorder,[5]; [7],1 (1.1) number (%) of patients
same,Adverse event: Alopecia,[5]; [8],1 (0.3) number (%) of patients
same,Adverse event: Arthralgia,[5]; [8],60 (17.2) number (%) of patients
same,Adverse event: Atrophy of skin,[5]; [8],0 (0.0) number (%) of patients
same,Adverse event: Back pain,[5]; [8],16 (4.6) number (%) of patients
same,Adverse event: Cheilitis,[5]; [8],228 (65.5) number (%) of patients
same,Adverse event: Dry Skin,[5]; [8],82 (23.6) number (%) of patients
same,Adverse event: Dry mouth/Oral dryness,[5]; [8],11 (3.2) number (%) of patients
same,Adverse event: Epistaxis,[5]; [8],2 (0.6) number (%) of patients
same,Adverse event: Erythematous rash/Erythema,[5]; [8],2 (0.6) number (%) of patients
same,Adverse event: Hyperesthesia,[5]; [8],0 (0.0) number (%) of patients
same,Adverse event: Nail Disorder,[5]; [8],2 (0.6) number (%) of patients
same,Adverse event: Paresthesia,[5]; [8],7 (2.0) number (%) of patients
same,Adverse event: Paronychia/Nail disorder,[5]; [8],2 (0.6) number (%) of patients
same,Adverse event: Pruritus,[5]; [8],21 (6.0) number (%) of patients
same,Adverse event: Rhinitis,[5]; [8],8 (2.3) number (%) of patients
same,Adverse event: Rigors/Chills,[5]; [8],9 (2.6) number (%) of patients
same,Adverse event: Skin peeling/Desquamation,[5]; [8],3 (0.9) number (%) of patients
same,Adverse event: Sticky skin/Skin disorder,[5]; [8],1 (0.3) number (%) of patients
same,Adverse event: Xerophthalmia/Eye disorder,[5]; [8],8 (2.3) number (%) of patients
